Reference: patent US20250262279A1, “DOSE REGIMEN FOR LONG-ACTING GLP1/GLUCAGON RECEPTOR AGONISTS” (Boehringer Ingelheim International GmbH, priority 2021, published 2025)

Key:
[1] = Example 1 Phase I titration study in obesity/overweight: safety and tolerability; conditions: for Patients withdrawn from up-titration: Ex.1 Part B (16 wk)
From the text: Blinded within dose groups, randomised, placebo-controlled
• Male patients (Part A); male and female patients (Part B) • Age 18 to <70 years • BMI 27 to <40 kg/m^2 • Body weight of at least 70 kg for women and 80 kg for men • Stable body weight, defined as no more than 5% change within 3 months prior to screening
Further criteria of interest: • AEs (including clinically relevant findings from the physical examination and assessment of local tolerability) • Safety laboratory tests • 12-lead ECG • Vital signs (blood pressure, pulse rate) • Continuous ECG (including mean daily heart rate) • Assessment of local tolerability by the investigator • The cumulative number [N (%)] of patients withdrawn from up-titration by up-titration scheme and week
Descriptive statistics were calculated for all endpoints. […] No formal interim analysis was conducted. Data from the completed 6-week cohorts were analysed before database lock for internal decision-making.

[2] = Example 2 Phase I study in healthy Japanese men: safety and tolerability; assay type: in vivo, human
From the text: This study was a randomised, placebo-controlled, single-blind, and parallel-group clinical trial with up to 3 dose-escalation schemes (Dose Groups [DGs]1 to 3) in healthy Japanese male subjects with BMI 23 to 40 kg/m^2. The weekly (DG1 and DG2) or twice a week (DG3) dosing in this scheme allowed for immediate clinical evaluation whether a further increase in the cumulative weekly dose was safe and well tolerated. The treatment duration was 16 weeks in total including a dose escalation phase to minimize Gastrointestinal (GI) Adverse Events (AEs) of Compound I. This was followed by a 4-week follow-up period.
The primary endpoint to assess the safety and tolerability of Compound I was the cumulative percentage (%) of subjects withdrawn from the up-titration by the dose escalation scheme.
• AEs (including clinically relevant findings from the physical examination) • Safety laboratory tests • 12-lead electrocardiogram (ECG) • Continuous ECG monitoring • Vital signs (blood pressure, pulse rate) • Columbia-Suicide Severity Rating Scale (C-SSRS) • Change from baseline in heart rate following treatment with Compound I relative to placebo (until 24 hours after Compound I administration) • The cumulative number [N (%)] of subjects withdrawn from the up-titration by the dose escalation scheme and week
The main objective of this trial was to assess the safety and tolerability of Compound I as well as PK and PD parameters by using descriptive statistics for all endpoints, which were compared across treatment groups. Further analysis comprised linear modelling for attainment of steady state in DG1.

[3] = Ex.1 Part B, Weekly 6 (twice weekly)

CC[C@H](C)[C@H](NC(=O)[C@H](Cc1ccccc1)NC(=O)[C@H](CC(=O)O)NC(=O)[C@H](CCCCN)NC(=O)[C@H](C)NC(=O)[C@H](C)NC(=O)[C@H](CCCNC(=N)N)NC(=O)[C@H](CCC(=O)O)NC(=O)[C@H](CC(=O)O)NC(=O)[C@H](CC(C)C)NC(=O)[C@H](Cc1ccc(O)cc1)NC(=O)[C@H](CCCCN)NC(=O)[C@H](CO)NC(=O)[C@H](Cc1ccc(O)cc1)NC(=O)[C@H](CC(=O)O)NC(=O)[C@H](CO)NC(=O)[C@@H](NC(=O)[C@H](Cc1ccccc1)NC(=O)[C@@H](NC(=O)CNC(=O)[C@H](CCC(N)=O)NC(=O)C1(NC(=O)[C@@H](N)Cc2c[nH]cn2)CCC1)[C@@H](C)O)[C@@H](C)O)C(=O)N[C@@H](CCCCNC(=O)CNC(=O)CNC(=O)[C@H](CO)NC(=O)CNC(=O)[C@H](CO)NC(=O)CNC(=O)CC[C@H](NC(=O)CCCCCCCCCCCCCCCCC(=O)O)C(=O)O)C(=O)N[C@@H](Cc1c[nH]c2ccccc12)C(=O)N[C@@H](CC(C)C)C(=O)N[C@@H](CCC(=O)O)C(=O)N[C@@H](CO)C(=O)N[C@@H](C)C(N)=O [Compound I]
Patients withdrawn from up-titration ([1]; Weekly 5): 4 (36.4) N (%) | Patients withdrawn from up-titration ([1]; Weekly 6 (twice weekly)): 1 (8.3) N (%) | Patients with AE leading to discontinuation of trial drug ([1]; Ex.1 Part B, Cmp I Total): 6 (16.7) N (%) | Patients with any AE ([1]; Ex.1 Part B, Cmp I Total): 35 (97.2) N (%) | Patients with investigator defined drug-related AE ([1]; Ex.1 Part B, Cmp I Total): 35 (97.2) N (%) | Patients with other significant AEs (ICH E3) ([1]; Ex.1 Part B, Cmp I Total): 8 (22.2) N (%) | Patients with serious AE ([1]; Ex.1 Part B, Cmp I Total): 0 N (%) | Patients with severe AE ([1]; Ex.1 Part B, Cmp I Total): 8 (22.2) N (%) | Patients with AE leading to discontinuation of trial drug ([1]; Ex.1 Part B, Weekly 4): 3 (23.1) N (%) | Patients with any AE ([1]; Ex.1 Part B, Weekly 4): 13 (100.0) N (%) | Patients with investigator defined drug-related AE ([1]; Ex.1 Part B, Weekly 4): 13 (100.0) N (%) | Patients with other significant AEs (ICH E3) ([1]; Ex.1 Part B, Weekly 4): 4 (30.8) N (%) | Patients with serious AE ([1]; Ex.1 Part B, Weekly 4): 0 N (%) | Patients with severe AE ([1]; Ex.1 Part B, Weekly 4): 4 (30.8) N (%) | drug-related gastrointestinal disorders, frequency ([1]; Ex.1 Part B, Weekly 4): 92.3% | Patients with AE leading to discontinuation of trial drug ([1]; Ex.1 Part B, Weekly 5): 2 (18.2) N (%) | Patients with any AE ([1]; Ex.1 Part B, Weekly 5): 11 (100.0) N (%) | Patients with investigator defined drug-related AE ([1]; Ex.1 Part B, Weekly 5): 11 (100.0) N (%) | Patients with other significant AEs (ICH E3) ([1]; Ex.1 Part B, Weekly 5): 3 (27.3) N (%) | Patients with serious AE ([1]; Ex.1 Part B, Weekly 5): 0 N (%) | Patients with severe AE ([1]; Ex.1 Part B, Weekly 5): 4 (36.4) N (%) | drug-related gastrointestinal disorders, frequency ([1]; Ex.1 Part B, Weekly 5): all patients | proportion of patients who withdrew from up-titration ([1]; Ex.1 Part B, Weekly 5): 36.4% | Patients with AE leading to discontinuation of trial drug [1, 3]: 1 (8.3) N (%) | Patients with any AE [1, 3]: 11 (91.7) N (%) | Patients with investigator defined drug-related AE [1, 3]: 11 (91.7) N (%) | Patients with other significant AEs (ICH E3) [1, 3]: 1 (8.3) N (%) | Patients with serious AE [1, 3]: 0 N (%) | Patients with severe AE [1, 3]: 0 N (%) | drug-related gastrointestinal disorders, frequency [1, 3]: 58.3% | proportion of patients who withdrew from up-titration [1, 3]: 8.3% | proportion of patients who withdrew from up-titration ([1]; Ex.1 Part B, all Compound I groups): 22.2% | ECG analyses, heart rate ([1]; Ex.1 Part B, all Compound I treatment groups): increases in heart rate | AEs in the cardiac disorder class ([2]; Ex.2): no AEs reported | clinical laboratory values ([2]; Ex.2): Findings of clinical relevance were not observed | deaths and AEs of special interest ([2]; Ex.2): neither deaths nor AEs of special interest reported | vital signs, ECG evaluation, local tolerability, suicidal risk assessment ([2]; Ex.2): No clinically relevant findings | Subjects with investigator defined drug-related AEs ([2]; Ex.2 Cmp I Total): 27 N | Number of subjects withdrawn from the up-titration ([2]; Ex.2 Compound I Total): 10 N | pulse rate ([2]; Ex.2 Compound I dosing groups): expected increase in pulse rate | Number of subjects withdrawn from the up-titration ([2]; Ex.2 DG1): 2 N | subjects with AE decreased appetite ([2]; Ex.2 DG1): 8 subjects | subjects with AE decreased appetite ([2]; Ex.2 DG1, of 9 trial subjects): 88.9% | Number of subjects withdrawn from the up-titration ([2]; Ex.2 DG2): 6 N | subjects with AE decreased appetite ([2]; Ex.2 DG2): 9 subjects | subjects with severe vomiting ([2]; Ex.2 DG2): 1 subject | subjects with AE decreased appetite ([2]; Ex.2 DG2, of 9 trial subjects): 100.0% | subjects with severe vomiting ([2]; Ex.2 DG2, of 9 trial subjects): 11.1% | subjects with AE decreased appetite ([2]; Ex.2 DG3): 7 subjects | subjects with severe diarrhoea ([2]; Ex.2 DG3): 1 subject | Number of subjects withdrawn from the up-titration ([2]; Ex.2 DG3 (twice weekly)): 2 N | subjects with AE decreased appetite ([2]; Ex.2 DG3, of 9 trial subjects): 77.8% | subjects with severe diarrhoea ([2]; Ex.2 DG3, of 9 trial subjects): 11.1%
